How the values were obtained:
Format in all cases: in vivo
Barnyardgrass [1] = assay: Post-emergence herbicide test; conditions: Echinochloa crus-galli, read-out: % plant inhibition (Bygr); for inhibition at 1120 g/ha: 1.12 kg/ha; for inhibition at 11210 g/ha: 11.21 kg/ha
Method in brief: (§1)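 Pot-grown plants two to three weeks old sprayed at 170.3 kPa with test compound in ~0.4% emulsifier, 1870 L/Ha spray volume. Percent inhibition versus control scored about 11 days after spraying, sometimes again at about 25 days.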

Velvetleaf [2] = assay: Post-emergence herbicide test; conditions: Abutilon theophrasti, read-out: % plant inhibition (Vele); for inhibition at 1120 g/ha: 1.12 kg/ha; for inhibition at 11210 g/ha: 11.21 kg/ha
Method in brief: as §1

Indian Mustard [3] = assay: Post-emergence herbicide test; conditions: Brassica juncea, read-out: % plant inhibition (Inmu); for inhibition at 1120 g/ha: 1.12 kg/ha; for inhibition at 11210 g/ha: 11.21 kg/ha
Method in brief: as §1

Yellow nutsedge [4] = assay: Post-emergence herbicide test; conditions: Cyperus, read-out: % plant inhibition (Yens); for inhibition at 1120 g/ha: 1.12 kg/ha; for inhibition at 11210 g/ha: 11.21 kg/ha
Method in brief: as §1

Cocklebur [5] = assay: Post-emergence herbicide test; conditions: Xanthium strumarium, read-out: % plant inhibition (Cobu); for inhibition at 1120 g/ha: 1.12 kg/ha; for inhibition at 11210 g/ha: 11.21 kg/ha
Method in brief: as §1

Annual bluegrass [6] = assay: Post-emergence herbicide test; conditions: read-out: % plant inhibition (Anbg); for inhibition at 1120 g/ha: 1.12 kg/ha; for inhibition at 11210 g/ha: 11.21 kg/ha
Method in brief: as §1

Morningglory [7] = assay: Post-emergence herbicide test; conditions: Ipomoea, read-out: % plant inhibition (Mogl); for inhibition at 1120 g/ha: 1.12 kg/ha; for inhibition at 11210 g/ha: 11.21 kg/ha
Method in brief: as §1

Seedling johnsongrass [8] = assay: Post-emergence herbicide test; conditions: Sorghum halepense, read-out: % plant inhibition (Sejg); for inhibition at 1120 g/ha: 1.12 kg/ha; for inhibition at 11210 g/ha: 11.21 kg/ha
Method in brief: as §1

Downy Brome [9] = assay: Post-emergence herbicide test; conditions: Bromus tectorum, read-out: % plant inhibition (Dobr); for inhibition at 1120 g/ha: 1.12 kg/ha; for inhibition at 11210 g/ha: 11.21 kg/ha
Method in brief: as §1

Wild buckwheat [10] = assay: Post-emergence herbicide test; conditions: Fallopia convolvulus, read-out: % plant inhibition (Wibw); for inhibition at 1120 g/ha: 1.12 kg/ha; for inhibition at 11210 g/ha: 11.21 kg/ha
Method in brief: as §1

Barnyardgrass [11] = assay: Pre-emergence herbicide test; conditions: Echinochloa crus-galli, read-out: % plant inhibition (Bygr); for inhibition at 1120 g/ha: 1.12 kg/ha; for inhibition at 11210 g/ha: 11.21 kg/ha
Method in brief: (§2)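 Pre-emergence soil application: compound in acetone or water carrier sprayed onto seeded topsoil surface, overlaid with untreated soil. Pans kept on greenhouse bench, watered from below. Read-out % inhibition, ~11 days post-treatment.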

Velvetleaf [12] = assay: Pre-emergence herbicide test; conditions: Abutilon theophrasti, read-out: % plant inhibition (Vele); for inhibition at 1120 g/ha: 1.12 kg/ha; for inhibition at 11210 g/ha: 11.21 kg/ha
Method in brief: as §2

Indian Mustard [13] = assay: Pre-emergence herbicide test; conditions: Brassica juncea, read-out: % plant inhibition (Inmu); for inhibition at 1120 g/ha: 1.12 kg/ha; for inhibition at 11210 g/ha: 11.21 kg/ha
Method in brief: as §2

Yellow nutsedge [14] = assay: Pre-emergence herbicide test; conditions: Cyperus, read-out: % plant inhibition (Yens); for inhibition at 1120 g/ha: 1.12 kg/ha; for inhibition at 11210 g/ha: 11.21 kg/ha
Method in brief: as §2

Cocklebur [15] = assay: Pre-emergence herbicide test; conditions: Xanthium strumarium, read-out: % plant inhibition (Cobu); for inhibition at 1120 g/ha: 1.12 kg/ha; for inhibition at 11210 g/ha: 11.21 kg/ha
Method in brief: as §2

Annual bluegrass [16] = assay: Pre-emergence herbicide test; conditions: read-out: % plant inhibition (Anbg); for inhibition at 1120 g/ha: 1.12 kg/ha; for inhibition at 11210 g/ha: 11.21 kg/ha
Method in brief: as §2

Morningglory [17] = assay: Pre-emergence herbicide test; conditions: Ipomoea, read-out: % plant inhibition (Mogl); for inhibition at 1120 g/ha: 1.12 kg/ha; for inhibition at 11210 g/ha: 11.21 kg/ha
Method in brief: as §2

Seedling johnsongrass [18] = assay: Pre-emergence herbicide test; conditions: Sorghum halepense, read-out: % plant inhibition (Sejg); for inhibition at 1120 g/ha: 1.12 kg/ha; for inhibition at 11210 g/ha: 11.21 kg/ha
Method in brief: as §2

Downy Brome [19] = assay: Pre-emergence herbicide test; conditions: Bromus tectorum, read-out: % plant inhibition (Dobr); for inhibition at 1120 g/ha: 1.12 kg/ha; for inhibition at 11210 g/ha: 11.21 kg/ha
Method in brief: as §2

Wild buckwheat [20] = assay: Pre-emergence herbicide test; conditions: Fallopia convolvulus, read-out: % plant inhibition (Wibw); for inhibition at 1120 g/ha: 1.12 kg/ha; for inhibition at 11210 g/ha: 11.21 kg/ha
Method in brief: as §2

Compound	inhibition at 1120 g/ha (Barnyardgrass [1]) [%]	inhibition at 1120 g/ha (Velvetleaf [2]) [%]	inhibition at 1120 g/ha (Indian Mustard [3]) [%]	inhibition at 1120 g/ha (Yellow nutsedge [4]) [%]	inhibition at 1120 g/ha (Cocklebur [5]) [%]	inhibition at 1120 g/ha (Annual bluegrass [6]) [%]	inhibition at 1120 g/ha (Morningglory [7]) [%]	inhibition at 1120 g/ha (Seedling johnsongrass [8]) [%]	inhibition at 1120 g/ha (Downy Brome [9]) [%]	inhibition at 1120 g/ha (Wild buckwheat [10]) [%]	inhibition at 1120 g/ha (Barnyardgrass [11]) [%]	inhibition at 1120 g/ha (Velvetleaf [12]) [%]	inhibition at 1120 g/ha (Indian Mustard [13]) [%]	inhibition at 1120 g/ha (Yellow nutsedge [14]) [%]	inhibition at 1120 g/ha (Cocklebur [15]) [%]	inhibition at 1120 g/ha (Annual bluegrass [16]) [%]	inhibition at 1120 g/ha (Morningglory [17]) [%]	inhibition at 1120 g/ha (Seedling johnsongrass [18]) [%]	inhibition at 1120 g/ha (Downy Brome [19]) [%]	inhibition at 1120 g/ha (Wild buckwheat [20]) [%]	other results
CC(C)COC(=O)c1cc(-c2nn(C)c(C(F)(F)F)c2Cl)c(F)cc1Cl [Compound 139]	100	100	100	10	90	90	100	100	100	100	30	100	90	20	70	20	70	40	80	90	–
COC(=O)C=Cc1cc(-c2nn(C)c(C(F)(F)F)c2Cl)c(F)cc1Cl [Compound 128, 3-(2-chloro-5-(4-chloro-1-methyl-5-(trifluoromethyl)-1H-pyrazol-3-yl)-4-fluorophenyl)propenoic acid, methyl ester]	50	100	90	20	100	30	100	100	100	100	0	100	70	0	70	0	80	30	0	100	–
CC(C#N)c1cc(-c2nn(C)c(C(F)(F)F)c2Cl)c(F)cc1Cl (centres unmarked) [Compound 106]	60	100	60	10	60	30	100	40	20	90	80	80	90	0	20	30	60	80	80	100	–
Cn1nc(-c2cc(CC#N)c(Cl)cc2F)c(Cl)c1C(F)(F)F [Compound 115]	80	100	60	20	60	40	60	40	20	100	80	100	100	0	20	40	80	70	70	90	–
Cn1nc(-c2cc(C3OCCS3)c(Cl)cc2F)c(Cl)c1C(F)(F)F (centres unmarked) [Compound 102]	90	100	100	20	60	90	100	100	100	100	80	100	100	20	30	60	100	90	80	100	–
Cn1nc(-c2ccc(Cl)cc2)c(Cl)c1C(F)(F)F [Compound 82]	–	–	–	–	–	–	–	–	–	–	–	–	–	–	–	–	–	–	–	–	inhibition at 11210 g/ha (Barnyardgrass [1]): 30%; inhibition at 11210 g/ha (Velvetleaf [2]): 20%; inhibition at 11210 g/ha (Indian Mustard [3]): 30%; inhibition at 11210 g/ha (Yellow nutsedge [4]): 10%; inhibition at 11210 g/ha (Cocklebur [5]): 0%; inhibition at 11210 g/ha (Annual bluegrass [6]): 0%; inhibition at 11210 g/ha (Morningglory [7]): 90%; inhibition at 11210 g/ha (Seedling johnsongrass [8]): 40%; inhibition at 11210 g/ha (Downy Brome [9]): 20%; inhibition at 11210 g/ha (Wild buckwheat [10]): 60%; inhibition at 11210 g/ha (Barnyardgrass [11]): 100%; inhibition at 11210 g/ha (Velvetleaf [12]): 100%; inhibition at 11210 g/ha (Indian Mustard [13]): 80%; inhibition at 11210 g/ha (Yellow nutsedge [14]): 30%; inhibition at 11210 g/ha (Cocklebur [15]): 40%; inhibition at 11210 g/ha (Annual bluegrass [16]): 60%; inhibition at 11210 g/ha (Morningglory [17]): 100%; inhibition at 11210 g/ha (Seedling johnsongrass [18]): 100%; inhibition at 11210 g/ha (Downy Brome [19]): 100%; inhibition at 11210 g/ha (Wild buckwheat [20]): 100%
Cn1nc(-c2ccc(Cl)cc2Cl)c(Cl)c1C(F)(F)F [Compound 85]	–	–	–	–	–	–	–	–	–	–	–	–	–	–	–	–	–	–	–	–	inhibition at 11210 g/ha (Barnyardgrass [1]): 70%; inhibition at 11210 g/ha (Velvetleaf [2]): 100%; inhibition at 11210 g/ha (Indian Mustard [3]): 20%; inhibition at 11210 g/ha (Yellow nutsedge [4]): 20%; inhibition at 11210 g/ha (Cocklebur [5]): 40%; inhibition at 11210 g/ha (Annual bluegrass [6]): 60%; inhibition at 11210 g/ha (Morningglory [7]): 100%; inhibition at 11210 g/ha (Seedling johnsongrass [8]): 90%; inhibition at 11210 g/ha (Downy Brome [9]): 50%; inhibition at 11210 g/ha (Wild buckwheat [10]): 100%; inhibition at 11210 g/ha (Barnyardgrass [11]): 100%; inhibition at 11210 g/ha (Velvetleaf [12]): 100%; inhibition at 11210 g/ha (Indian Mustard [13]): 100%; inhibition at 11210 g/ha (Yellow nutsedge [14]): 0%; inhibition at 11210 g/ha (Cocklebur [15]): 40%; inhibition at 11210 g/ha (Annual bluegrass [16]): 100%; inhibition at 11210 g/ha (Morningglory [17]): 100%; inhibition at 11210 g/ha (Seedling johnsongrass [18]): 100%; inhibition at 11210 g/ha (Downy Brome [19]): 100%; inhibition at 11210 g/ha (Wild buckwheat [20]): 100%
Cn1nc(-c2cc(NC(=O)C(F)(F)F)c(Cl)cc2Cl)c(Cl)c1C(F)(F)F [Compound 88]	–	–	–	–	–	–	–	–	–	–	–	–	–	–	–	–	–	–	–	–	inhibition at 11210 g/ha (Barnyardgrass [1]): 50%; inhibition at 11210 g/ha (Velvetleaf [2]): 100%; inhibition at 11210 g/ha (Indian Mustard [3]): 60%; inhibition at 11210 g/ha (Yellow nutsedge [4]): 0%; inhibition at 11210 g/ha (Cocklebur [5]): 100%; inhibition at 11210 g/ha (Annual bluegrass [6]): 10%; inhibition at 11210 g/ha (Morningglory [7]): 100%; inhibition at 11210 g/ha (Seedling johnsongrass [8]): 70%; inhibition at 11210 g/ha (Downy Brome [9]): 10%; inhibition at 11210 g/ha (Wild buckwheat [10]): 100%; inhibition at 11210 g/ha (Barnyardgrass [11]): 10%; inhibition at 11210 g/ha (Velvetleaf [12]): 80%; inhibition at 11210 g/ha (Indian Mustard [13]): 20%; inhibition at 11210 g/ha (Yellow nutsedge [14]): 10%; inhibition at 11210 g/ha (Cocklebur [15]): 20%; inhibition at 11210 g/ha (Annual bluegrass [16]): 20%; inhibition at 11210 g/ha (Morningglory [17]): 10%; inhibition at 11210 g/ha (Seedling johnsongrass [18]): 30%; inhibition at 11210 g/ha (Downy Brome [19]): 10%; inhibition at 11210 g/ha (Wild buckwheat [20]): 100%
C#CCOCc1cc(-c2nn(C)c(C(F)(F)F)c2Cl)c(F)cc1Cl [Compound 120]	80	100	70	10	90	40	100	80	50	100	80	100	90	10	30	70	80	80	70	100	–
Cn1nc(-c2cc(OCC(=O)O)c(Cl)cc2F)c(Cl)c1C(F)(F)F [Compound 291, (2-Chloro-5-(4-chloro-1-methyl-5-(trifluoromethyl)-1H-pyrazol-3-yl)-4-fluorophenoxy)-acetic acid]	20	100	40	30	100	0	100	30	20	90	20	100	40	30	100	30	100	40	20	100	–
